Results as given in PubChem BioAssay (NCI).
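Briefly, cells in 96-well plates were exposed to five compound concentrations for 48 h, and endpoints were estimated by linear interpolation. TGI is the concentration that stops growth completely.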

Legend:
Experiment in all cases: NCI tumour cell line growth inhibition, 48 h
MDA-N = system: MDA-N
KM12 colon = system: KM12 colon
K-562 leukemia = system: K-562 leukemia
MCF7 breast = system: MCF7 breast
HT29 colon = system: HT29 colon
SK-MEL-28 melanoma = system: SK-MEL-28 melanoma
OVCAR-3 ovarian = system: OVCAR-3 ovarian
RXF 393 renal = system: RXF 393 renal
MDA-MB-435 = system: MDA-MB-435
SK-OV-3 ovarian = system: SK-OV-3 ovarian

Compound | TGI (MDA-N) | TGI (KM12 colon) | TGI (K-562 leukemia) | TGI (MCF7 breast) | TGI (HT29 colon) | TGI (SK-MEL-28 melanoma) | TGI (OVCAR-3 ovarian) | TGI (RXF 393 renal) | TGI (MDA-MB-435) | TGI (SK-OV-3 ovarian)
O=C(N/N=C(/COc1ccc(Cl)cc1)N=Cc1ccncc1)c1ccncc1 | > 100 µM | > 100 µM | > 100 µM | > 100 µM | > 100 µM | > 100 µM | > 100 µM | > 100 µM | > 100 µM | > 100 µM
COC(=O)c1cc(=O)nc2sc3cccc(C)c3n12 | > 100 µM | > 100 µM | > 100 µM | > 100 µM | > 100 µM | > 100 µM | 82.8 µM | > 100 µM | > 100 µM | > 100 µM
Cc1ccccc1C(=O)N1CCc2c([nH]c3ccccc23)C1 | 43.9 µM | 87 µM | 62.5 µM | 51.8 µM | 44.7 µM | > 100 µM | 74.1 µM | 43.1 µM | 37.3 µM | > 100 µM
CC(=O)O[C@@H]1[C@H](C(C)C)[C@@H](OC(C)=O)C/C(C)=C/CC[C@]2(C)O[C@@H]12 | > 100 µM | > 100 µM | > 100 µM | > 100 µM | > 100 µM | > 100 µM | > 100 µM | > 100 µM | > 100 µM | > 100 µM
Cc1ccc([N+](=O)[O-])cc1NC1=NCCO1 | > 100 µM | > 100 µM | > 100 µM | > 100 µM | > 100 µM | > 100 µM | > 100 µM | > 100 µM | > 100 µM | > 100 µM
S=C1Nc2ccccc2SC1c1ccccc1 (stereo not given) | > 100 µM | > 100 µM | > 100 µM | > 100 µM | > 100 µM | > 100 µM | > 100 µM | 92.5 µM | > 100 µM | > 100 µM
[N-]=[N+]=NC[C@H]1OCO[C@H](CN=[N+]=[N-])[C@@H](OCCOCCCl)[C@@H]1OCCOCCCl | > 100 µM | > 100 µM | > 100 µM | > 100 µM | > 100 µM | > 100 µM | > 100 µM | > 100 µM | > 100 µM | > 100 µM
CC(C)(C)N1CSC(=S)N(Cc2ccco2)C1 | 16.5 µM | 14.3 µM | 13.3 µM | 14.3 µM | 13.8 µM | 10.8 µM | 4.94 µM | 19.4 µM | 13.4 µM | 18.9 µM
O=C1CC(NC(=O)C(F)(F)F)c2c(Br)sc(N3CCNCC3)c21 (stereo not given) | > 100 µM | > 100 µM | > 100 µM | > 100 µM | > 100 µM | > 100 µM | > 100 µM | > 100 µM | > 100 µM | > 100 µM
C[C@@H](NC(=O)[C@@H]1C[C@]1(C)COC(=O)c1cc([N+](=O)[O-])cc([N+](=O)[O-])c1)c1cccc2ccccc12 | > 100 µM | > 100 µM | > 100 µM | > 100 µM | > 100 µM | > 100 µM | > 100 µM | > 100 µM | > 100 µM | > 100 µM
Cc1cc(Cc2cc(C)c(N)cc2N)c(N)cc1N | > 100 µM | > 100 µM | > 100 µM | > 100 µM | > 100 µM | > 100 µM | > 100 µM | > 100 µM | > 100 µM | > 100 µM
COc1cc(C(=O)N(C(=S)OCc2ccccn2)c2ccccc2)cc(OC)c1OC | > 100 µM | > 100 µM | > 100 µM | > 100 µM | > 100 µM | > 100 µM | > 100 µM | > 100 µM | > 100 µM | > 100 µM
